Results reported in patent US20130029970A1 (priority 2009, published 2013).
Values joined by “and” are separate entries in the source; they are usually repeats but may differ in a detail not shown here. Equal values may be shown once.

Columns and labels:
[1] = system: PBQ-induced writhing in the mouse; assay: Phenylbenzoquinone-induced (PBQ) writhing model
[2] = system: CFA induced inflammatory pain in the rat; assay: Complete Freund's Adjuvant (CFA) induced inflammatory pain model; assay type: in vivo
Method: In this rat model of inflammatory pain, 100 uL of CFA diluted 1:1 with phosphate buffered saline was injected into the subplantar region of the right hind paw on Day 1. On day 3, test compounds were administered orally and rats were assessed for their reaction to a mechanical stimuli applied via an Analgesy® meter. Injection of CFA increased the rats' reactivity to painful stimuli and this was reflected in a decrease in the amount of pressure they could tolerate prior to withdrawing their paw from the apparatus (hyperalgesia). An anti-hyperalgesic activity of the test compound was denoted by an increase in the amount of pressure they can tolerate prior to withdrawing their paw from the apparatus. The mean±SEM for each treatment group was determined and a Dunnett test was applied for comparison between vehicle and treated groups. Differences were considered significant at P<0.05. (see Bertorelli et al. 1999 Brit Journ Pharmacol 128:1252).

With `COc1ccc(C(=O)c2cc3cc(C)n(CCN4CCOCC4)c3s2)cc1` [Compound I-36] the “Number of Writhes” value ([1]; Dose 3, PO) was 14.5 ± 1.59, the “Number of Writhes” value ([1]; Dose 10, PO) was 12.1 ± 2.8 and the “Number of Writhes” value ([1]; Dose 30, PO) was 7.3 ± 2.5. For the same compound, the “Post CFA PWT (grams)” value ([2]; 3 mg/kg PO) was 114.3 ± 11.8 grams, the “Post CFA PWT (grams)” value ([2]; 10 mg/kg PO) was 90.7 ± 10.4 grams and the “Post CFA PWT (grams)” value ([2]; 30 mg/kg PO) was 157.3 ± 11.4 grams. The “Post CFA PWT (grams)” value ([2]; 56 mg/kg PO) was 191 ± 12.1 grams.

`COc1ccc(C(=O)c2cc3cc(C)n(CCCNS(C)(=O)=O)c3s2)cc1` [Compound I-44] was tested, and the “Number of Writhes” value ([1]; Dose 3, PO) was 13.9 ± 1.4, the “Number of Writhes” value ([1]; Dose 10, PO) was 9.4 ± 2.6 and the “Number of Writhes” value ([1]; Dose 30, PO) was 8.25 ± 2.54 and 9.7 ± 1.7. The “Post CFA PWT (grams)” value ([2]; 10 mg/kg PO) was 164.4 ± 8.4 grams, the “Post CFA PWT (grams)” value ([2]; 30 mg/kg PO) was 153.7 ± 10.7 grams and the “Post CFA PWT (grams)” value ([2]; 56 mg/kg PO) was 150 ± 13.8 grams.

`COc1ccc(C(=O)c2cc3cc(C)n(CCN4CCOCC4)c3s2)cn1` [Compound I-58] was tested, and the “Number of Writhes” value ([1]; Dose 30, IP) was 1.1 ± 0.38, the “Number of Writhes” value ([1]; Dose 30, PO) was 15.9 ± 2.7 and the “Post CFA PWT (grams)” value ([2]; 60 mg/kg PO) was 170.3 ± 19.7 grams.

For `COc1ccc(C(=O)c2cc3cc(C)n(CCN4CCOCC4)c3s2)c(F)c1` [Compound I-68], the “Number of Writhes” value ([1]; Dose 3, PO) was 9.6 ± 2.2, the “Number of Writhes” value ([1]; Dose 10, PO) was 5.92 ± 1.55 and the “Post CFA PWT (grams)” value ([2]; 60 mg/kg PO) was 178.7 ± 24.4 grams.

For `COc1ccc(C(=O)c2cc3cc(C)n(CCN4CCOCC4)c3s2)c(Cl)c1` [Compound I-70], the “Number of Writhes” value ([1]; Dose 30, PO) was 3.2 ± 1.57 and the “Post CFA PWT (grams)” value ([2]; 60 mg/kg PO) was 195.7 ± 16.4 grams.

For `COc1ccc(C(=O)c2cc3cc(C)n(CCN4CCCCC4)c3s2)cc1` [Compound I-78], the “Post CFA PWT (grams)” value ([2]; 60 mg/kg PO) was 181.7 ± 22.3 grams.

In the case of `COc1ccc(C(=O)c2cc3cc(C)n(CCCNS(C)(=O)=O)c3s2)c(F)c1` [Compound I-87], the “Number of Writhes” value ([1]; Dose 30, PO) is reported as 17.2 ± 2.5 and the “Post CFA PWT (grams)” value ([2]; 60 mg/kg PO) is reported as 100.7 ± 11.3 grams.

`CCOc1ccc(C(=O)c2cc3cc(C)n(CCN4CCOCC4)c3s2)c(F)c1` [Compound I-89] was tested, and the “Post CFA PWT (grams)” value ([2]; 60 mg/kg PO) was 178.7 ± 19.6 grams.

In the case of `CCOc1ccc(C(=O)c2cc3cc(C)n(CCCNS(C)(=O)=O)c3s2)c(F)c1` [Compound I-95], the “Post CFA PWT (grams)” value ([2]; 60 mg/kg PO) is reported as 111.7 ± 20.5 grams.

In the case of `COc1ccc(C(=O)c2cc3cc(C)n(CCCNS(C)(=O)=O)c3s2)cn1` [Compound I-109], the “Number of Writhes” value ([1]; Dose 3, PO) is reported as 13.3 ± 2.3, the “Number of Writhes” value ([1]; Dose 10, PO) is reported as 8.93 ± 2.28 and the “Number of Writhes” value ([1]; Dose 30, PO) is reported as 5.78 ± 1.75. For the same compound, the “Post CFA PWT (grams)” value ([2]; 60 mg/kg PO) was 132 ± 12.3 grams.

With `Cc1cc2cc(C(=O)c3ccc(OC(C)C)cc3)sc2n1CCN1CCOCC1` [Compound I-111] the “Post CFA PWT (grams)” value ([2]; 60 mg/kg PO) was 140.7 ± 13.7 grams.

For `Cc1ccc(C(=O)c2cc3cc(C)n(CCN4CCOCC4)c3s2)cc1` [Compound I-124], the “Post CFA PWT (grams)” value ([2]; 60 mg/kg PO) was 196.7 ± 27.3 grams.
